Laboratory results taken from patent publication US10448639B2, “Fungicidal pyrazoles” (FMC CORPORATION, priority 2009, dated 2019).
Like-named read-outs stand apart in the source and are kept apart here.

Legend:
[1] = system: Erysiphe graminis f sp. tritici; test: Test J: wheat powdery mildew, preventive spray on wheat seedlings, visual disease rating; details: for Test J rating (% disease control) / Test J disease control rating: wheat powdery mildew, 100 = 100% disease control; for Test J disease control rating: sprayed the day before inoculation, 0 = no disease control relative to controls; for pest or weed control at 200 µg/mL: Blumeria graminis, in Triticum aestivum, 192 h
[2] = system: Puccinia recondita f. sp. tritici; test: Test I: wheat leaf rust, preventive spray on wheat seedlings, visual disease rating; details: for Test I rating (% disease control) / Test I disease control rating: wheat leaf rust, 100 = 100% disease control; for Test I disease control rating: sprayed the day before inoculation, 0 = no disease control relative to controls; for pest or weed control at 200 µg/mL: 192 h
Botrytis cinerea = test: Test B: tomato Botrytis, preventive spray on tomato seedlings, visual disease rating; details: for Test B rating (% disease control) / Test B disease control rating: tomato Botrytis, 100 = 100% disease control; for Test B disease control rating: 0 = no disease control relative to controls; for pest or weed control at 200 µg/mL: Botrytis cinerea, in Solanum lycopersicum, 120 h
Septoria tritici = test: Test G: wheat leaf blotch, preventive spray on wheat seedlings, visual disease rating; details: wheat leaf blotch, 100 = 100% disease control; for Test G disease control rating: sprayed the day before inoculation, 0 = no disease control relative to controls
Septoria nodorum = test: Test F: Septoria glume blotch, preventive spray on wheat seedlings, visual disease rating; details: for Test F rating (% disease control) / Test F disease control rating: 100 = 100% disease control; for Test F disease control rating: 0 = no disease control relative to controls; for pest or weed control at 200 µg/mL: Parastagonospora nodorum, in Triticum aestivum, 192 h
Alternaria solani = test: Test C: tomato early blight, preventive spray on tomato seedlings, visual disease rating; details: for Test C rating (% disease control) / Test C disease control rating: tomato early blight, 100 = 100% disease control; for Test C disease control rating: 0 = no disease control relative to controls; for pest or weed control at 200 µg/mL: Alternaria solani, in Solanum lycopersicum, 168 h
[3] = system: Puccinia recondita f. sp. tritici; test: Test H: wheat leaf rust, curative spray on inoculated wheat seedlings, visual disease rating; details: for Test H rating (% disease control) / Test H disease control rating: wheat leaf rust, 100 = 100% disease control; for Test H disease control rating: sprayed after inoculation, 0 = no disease control relative to controls; for pest or weed control at 200 µg/mL: 144 h
Source text: General protocol for preparing test suspensions for Tests A-J: the test compounds were first dissolved in acetone in an amount equal to 3% of the final volume and then suspended at the desired concentration (in ppm) in acetone and purified water (50/50 mix by volume) containing 250 ppm of the surfactant Trem® 014 (polyhydric alcohol esters). The resulting test suspensions were then used in Tests A-J. Spraying a 200 ppm test suspension to the point of run-off on the test plants was the equivalent of a rate of 500 g/ha. Unless otherwise indicated, the rating values indicate a 200 ppm test suspension was used. (An asterisk “*” next to the rating value indicates a 40 ppm test suspension was used.)
Wheat seedlings were inoculated with a spore suspension of Puccinia recondita f. sp. tritici (the causal agent of wheat leaf rust) and incubated in a saturated atmosphere at 20° C. for 24 h, and then moved to a growth chamber at 20° C. for 2 days. At the end of this time the test suspension was sprayed to the point of run-off, and then the seedlings were moved to a growth chamber at 20° C. for 6 days after which time visual disease ratings were made.

[4] = 0 = no control relative to controls
[5] = preventive, 0 = no control relative to controls
[6] = Septoria glume blotch, 0 = no control relative to controls
[7] = curative, 0 = no control relative to controls
[8] = preventive spray, 0 = no control
[9] = Septoria glume blotch on wheat, preventive spray, 0 = no control
[10] = read-out: Test J disease control rating
[11] = read-out: Test I disease control rating
[12] = read-out: Test B disease control rating
[13] = read-out: Test F disease control rating
[14] = read-out: Test C disease control rating
[15] = read-out: Test H disease control rating

SMILES: Cc1nn(C)c(Nc2cccc(Cl)c2Cl)c1-c1ccc(F)cc1F [compound 231]
- Test J rating (% disease control) [1, 4]: 100%
- Test I rating (% disease control) [2, 5]: 86%
- Test B rating (% disease control) (Botrytis cinerea; [4]): 98%
- Test G rating (% disease control) (Septoria tritici; [4]): 100%
- Test F rating (% disease control) (Septoria nodorum; [6]): 0%
- Test C rating (% disease control) (Alternaria solani; [4]): 34%
- Test H rating (% disease control) [3, 7]: 0%

SMILES: Cc1nn(C)c(Nc2c(F)cc(F)cc2F)c1-c1ccc(F)c(F)c1 [compound 35]
- Test J rating (% disease control) [1, 8]: 100%
- Test I rating (% disease control) [2, 8]: 97%
- Test B rating (% disease control) (Botrytis cinerea; [8]): 100%
- Test G rating (% disease control) (Septoria tritici; [8]): 95%
- Test F rating (% disease control) (Septoria nodorum; [9]): 0%
- Test C rating (% disease control) (Alternaria solani; [8]): 0%
- Test H rating (% disease control) ([3]; curative spray, 0 = no control): 0%

SMILES: Cc1nn(C)c(Nc2cc(C#N)ccc2Cl)c1-c1ccc(F)cc1Cl [compound 235]
- Test J rating (% disease control) [1, 4]: 79%
- Test I rating (% disease control) [2, 5]: 0%
- Test B rating (% disease control) (Botrytis cinerea; [4]): 84%
- Test G rating (% disease control) (Septoria tritici; [4]): 17%
- Test F rating (% disease control) (Septoria nodorum; [6]): 0%
- Test C rating (% disease control) (Alternaria solani; [4]): 0%
- Test H rating (% disease control) [3, 7]: 0%

SMILES: Cc1nn(C)c(Oc2ccc(C#N)c(C#N)c2)c1-c1ccc(F)cc1Cl [compound 168]
- Test J rating (% disease control) [1, 4]: 0%
- Test I rating (% disease control) [2, 5]: 0%
- Test B rating (% disease control) (Botrytis cinerea; [4]): 14%
- Test G rating (% disease control) (Septoria tritici; [4]): 33%
- Test F rating (% disease control) (Septoria nodorum; [6]): 0%
- Test C rating (% disease control) (Alternaria solani; [4]): 0%
- Test H rating (% disease control) [3, 7]: 0%

SMILES: Cc1nn(C)c(Nc2ncc(Cl)cc2Cl)c1-c1ccc(F)cc1F [compound 328]
- Test J disease control rating [1]: 100%
- Test I disease control rating [2]: 98%
- Test B disease control rating (Botrytis cinerea): 100%
- Test G disease control rating (Septoria tritici): 100%
- Test F disease control rating (Septoria nodorum; Septoria glume blotch on wheat): 0%
- Test C disease control rating (Alternaria solani): 86%
- Test H disease control rating [3]: 0%

SMILES: Cc1nn(C)c(Oc2c(F)cc(C#N)cc2F)c1-c1cccnc1Cl [compound 308]
- Test J disease control rating [1]: 0%
- Test I disease control rating [2]: 100%
- Test B disease control rating (Botrytis cinerea): 81%
- Test G disease control rating (Septoria tritici): 98%
- Test F disease control rating (Septoria nodorum; Septoria glume blotch on wheat): 0%
- Test C disease control rating (Alternaria solani): 0%
- Test H disease control rating [3]: 9%

SMILES: COc1cc(F)c(Nc2c(-c3ccccc3C(F)(F)F)c(C)nn2C)c(F)c1 [compound 240]
- Test J rating (% disease control) [1, 4]: 100%
- Test I rating (% disease control) [2, 5]: 99%
- Test B rating (% disease control) (Botrytis cinerea; [4]): 100%
- Test G rating (% disease control) (Septoria tritici; [4]): 99%
- Test F rating (% disease control) (Septoria nodorum; [6]): 0%
- Test C rating (% disease control) (Alternaria solani; [4]): 99%
- Test H rating (% disease control) [3, 7]: 0%

SMILES: COc1cc(F)c(Nc2c(-c3c(F)cc(C#N)cc3F)c(C)nn2C)c(F)c1 [compound 134]
- Test J rating (% disease control) [1, 8]: 0%
- Test I rating (% disease control) [2, 8]: 41%
- Test B rating (% disease control) (Botrytis cinerea; [8]): 99%
- Test G rating (% disease control) (Septoria tritici; [8]): 99%
- Test F rating (% disease control) (Septoria nodorum; [9]): 0%
- Test C rating (% disease control) (Alternaria solani; [8]): 0%
- Test H rating (% disease control) ([3]; curative spray, 0 = no control): 0%

SMILES: COc1cc(Cl)c(Nc2c(-c3ccc(F)cc3Cl)c(C)nn2C)c(Cl)c1 [compound 296]
- Test I rating (% disease control) [2, 5]: 99%
- Test B rating (% disease control) (Botrytis cinerea; [4]): 99%
- Test G rating (% disease control) (Septoria tritici; [4]): 100%
- Test F rating (% disease control) (Septoria nodorum; [6]): 0%
- Test C rating (% disease control) (Alternaria solani; [4]): 0%
- Test H rating (% disease control) [3, 7]: 0%

SMILES: COc1cc(Cl)c(Nc2c(-c3ccc(F)cc3Br)c(C)nn2C)c(Cl)c1 [compound 323]
- Test I disease control rating [2]: 94%
- Test B disease control rating (Botrytis cinerea): 98%
- Test G disease control rating (Septoria tritici): 98%
- Test F disease control rating (Septoria nodorum; Septoria glume blotch on wheat): 0%
- Test C disease control rating (Alternaria solani): 0%
- Test H disease control rating [3]: 0%

SMILES: Cc1nn(C)c(C(O)c2c(F)ccc(F)c2F)c1-c1ccc(F)cc1Cl (racemic) [compound 356]
- Test J disease control rating [1]: 0%
- Test I disease control rating [2]: 100%
- Test B disease control rating (Botrytis cinerea): 100%
- Test F disease control rating (Septoria nodorum; Septoria glume blotch on wheat): 0%
- Test C disease control rating (Alternaria solani): 0%
- Test H disease control rating [3]: 100%

SMILES: Cc1nn(C)c(Nc2c(Cl)cc(Br)cc2Cl)c1-c1ccc(F)cc1Cl [compound 403]
- Test J disease control rating [1]: 99%
- Test I disease control rating [2]: 100%
- Test B disease control rating (Botrytis cinerea): 99%
- Test F disease control rating (Septoria nodorum; Septoria glume blotch on wheat): 0%
- Test C disease control rating (Alternaria solani): 0%
- Test H disease control rating [3]: 99%

SMILES: Cc1nn(C)c(C(O)c2ccc(F)cc2F)c1-c1ccc(F)cc1Cl (stereo not drawn) [Compound 351, 4-(2-chloro-4-fluorophenyl)-α-(2,4-difluorophenyl)-1,3-dimethyl-1H-pyrazole-5-methanol]
- pest or weed control at 200 µg/mL [1, 10]: 99%
- pest or weed control at 200 µg/mL [2, 11]: 100%
- pest or weed control at 200 µg/mL (Botrytis cinerea; [12]): 100%
- pest or weed control at 200 µg/mL (Septoria nodorum; [13]): 92%
- pest or weed control at 200 µg/mL (Alternaria solani; [14]): 99%
- pest or weed control at 200 µg/mL [3, 15]: 96%

SMILES: Cc1nn(C)c(Oc2ccc(C#N)cc2Cl)c1-c1ccc(F)cc1Br [compound 285]
- Test J rating (% disease control) [1, 4]: 99%
- Test I rating (% disease control) [2, 5]: 99%
- Test B rating (% disease control) (Botrytis cinerea; [4]): 98%
- Test F rating (% disease control) (Septoria nodorum; [6]): 60%
- Test C rating (% disease control) (Alternaria solani; [4]): 0%
- Test H rating (% disease control) [3, 7]: 9%

SMILES: Cc1nn(C)c(Nc2c(Cl)cc(F)cc2Cl)c1-c1ccc(F)cc1Br [compound 316]
- Test J disease control rating [1]: 96%
- Test I disease control rating [2]: 99%
- Test B disease control rating (Botrytis cinerea): 99%
- Test F disease control rating (Septoria nodorum; Septoria glume blotch on wheat): 0%
- Test C disease control rating (Alternaria solani): 0%
- Test H disease control rating [3]: 9%

SMILES: Cc1nn(C)c(Oc2ccc(C#N)cc2F)c1-c1ccc(F)cc1Br [Compound 284, 4-[[4-(2-bromo-4-fluorophenyl)-1,3-dimethyl-1H-pyrazol-5-yl]oxy]-3-fluorobenzonitrile]
- pest or weed control at 200 µg/mL ([1]; read-out: Test J rating (% disease control)): 100%
- pest or weed control at 200 µg/mL ([2]; read-out: Test I rating (% disease control)): 100%
- pest or weed control at 200 µg/mL (Botrytis cinerea; read-out: Test B rating (% disease control)): 99%
- pest or weed control at 200 µg/mL (Septoria nodorum; read-out: Test F rating (% disease control)): 100%
- pest or weed control at 200 µg/mL (Alternaria solani; read-out: Test C rating (% disease control)): 99%
- pest or weed control at 200 µg/mL ([3]; read-out: Test H rating (% disease control)): 28%

SMILES: COc1cc(F)c(-c2c(C)nn(C)c2Oc2ccc(Br)c(OC)c2)c(F)c1 [compound 212]
- Test B rating (% disease control) (Botrytis cinerea; [4]): 0%
- Test G rating (% disease control) (Septoria tritici; [4]): 98%
- Test C rating (% disease control) (Alternaria solani; [4]): 17%
- Test H rating (% disease control) [3, 7]: 0%

SMILES: Cc1nn(C)c(Nc2c(F)cc(Cl)cc2Cl)c1-c1ccc(F)cc1Cl [Compound 367, 4-(2-chloro-4-fluorophenyl)-N-(2,4-dichloro-6-fluorophenyl)-1,3-dimethyl-1H-pyrazol-5-amine]
- pest or weed control at 200 µg/mL [1, 10]: 100%
- pest or weed control at 200 µg/mL [2, 11]: 100%
- pest or weed control at 200 µg/mL (Botrytis cinerea; [12]): 100%
- pest or weed control at 200 µg/mL (Septoria nodorum; [13]): 100%
- pest or weed control at 200 µg/mL (Alternaria solani; [14]): 100%
- pest or weed control at 200 µg/mL [3, 15]: 100%

SMILES: COc1ccc(-c2c(C)nn(C)c2Nc2ccc(Cl)cc2Cl)c(Cl)c1 [compound 282]
- Test J rating (% disease control) [1, 4]: 100%
- Test I rating (% disease control) [2, 5]: 99%
- Test B rating (% disease control) (Botrytis cinerea; [4]): 99%
- Test F rating (% disease control) (Septoria nodorum; [6]): 0%
- Test C rating (% disease control) (Alternaria solani; [4]): 98%
- Test H rating (% disease control) [3, 7]: 0%

SMILES: Cc1nn(C)c(Nc2ccc(Cl)cc2Cl)c1-c1ccc(F)cc1Cl [compound 299]
- Test J rating (% disease control) [1, 4]: 100%
- Test I rating (% disease control) [2, 5]: 100%
- Test B rating (% disease control) (Botrytis cinerea; [4]): 100%
- Test F rating (% disease control) (Septoria nodorum; [6]): 51%
- Test C rating (% disease control) (Alternaria solani; [4]): 95%
- Test H rating (% disease control) [3, 7]: 41%

SMILES: COc1cccc(Nc2c(-c3ccc(F)cc3F)c(C)nn2C)c1Cl [compound 281]
- Test J rating (% disease control) [1, 4]: 98%
- Test I rating (% disease control) [2, 5]: 94%
- Test B rating (% disease control) (Botrytis cinerea; [4]): 98%
- Test F rating (% disease control) (Septoria nodorum; [6]): 0%
- Test C rating (% disease control) (Alternaria solani; [4]): 44%
- Test H rating (% disease control) [3, 7]: 0%
